Molecular target: human LPAR1 (Homo sapiens, UniProt Q92633)
Assay: LPAR1 intracellular calcium mobilization assay (antagonist mode, FLIPR)
Type: cell-based
Conditions: CHO-K1 EDG2 cells expressing human LPAR1; test compound 0.5 nM to 10 μM pre-incubated 60 minutes at 37° C., then LPA 18:2 at EC80 concentration (100 nM)
Experimental: In vitro LPAR1 activity was measured in an intracellular calcium mobilization assay. CHO-K1 EDG2 cells (DiscoverX cat #93-0644C2) expressing human LPAR1 (NM_001401.3) were seeded in a total volume of 25 μL of Dulbecco's Modification of Eagle's Medium (DMEM) with 10% Fetal Bovine Serum, 1× PenStrepGlutamine, 300 μg/ml Hygromycin, and 800 μg/ml G418 into 384-well tissue culture plate (Grenier #781091) at 15,000 cells/well and incubated at 37° C. overnight. Prior to testing, 25 μL Calcium Loading Dye Component A (FLIPR Calcium 6 Assay Kit Molecular Device # R8190) and 2.5 mM Probenecid (Invitrogen # P36400, prepared fresh) in Hank's Balanced Salt Solution (Corning #21-023-CV), 20 mM HEPES (Corning #25-060-CI), 0.1% Bovine Serum Albumin (Sigma-Aldrich # A7906-500G) was add to the cells for 60 minutes at 37° C.
Agonist dose curves of LPA 18:2 (Avanti Polar Lipids cat #857138, 0.5 nM to 10 μM) were recorded to determine the LPA 18:2 EC80 for subsequent antagonist assays. For agonist dose curves, cells were removed from the incubator 2 hours after dye loading and transferred to the FLIPR Tetra instrument (Molecular Devices, San Jose, CA). Calcium mobilization was monitored for 5 min and 10 μL 6×LPA in HBSS/20 mM Hepes/0.1% bovine serum albumin (BSA) was added to the cells 5 seconds into the assay.
To determine the LPAR1 antagonist activity of test compounds, cells were pre-incubated with test compound at a dose range of 0.5 nM to 10 μM, followed by LPA at EC80 concentration (100 nM). After dye loading, cells were removed from the incubator and 0.3 μL of 200× antagonist was added. Cells were incubated for 60 minutes at 37° C. Antagonist activity was measured on a FLIPR Tetra. Calcium mobilization was monitored for 3.5 minutes and 10 μL 6×EC80 LPA in HBSS, 20 mM HEPES, and 0.1% BSA was added to the cells 5 seconds into the assay. Signal amplitude (Maximum minus minimum) values were plotted against log10 of antagonist concentration using Dose Response Tool (Gilead Sciences Inc.) to determine […].
To assess the antagonistic potential of exemplified compounds […] were determined for Compounds 1 to 66 in the LPAR1 calcium mobilization assay. The compound numbers correspond to the compound numbers in Examples 1 to 18. N/A=not available.

Chain of human LPAR1 (Q92633 whole entry): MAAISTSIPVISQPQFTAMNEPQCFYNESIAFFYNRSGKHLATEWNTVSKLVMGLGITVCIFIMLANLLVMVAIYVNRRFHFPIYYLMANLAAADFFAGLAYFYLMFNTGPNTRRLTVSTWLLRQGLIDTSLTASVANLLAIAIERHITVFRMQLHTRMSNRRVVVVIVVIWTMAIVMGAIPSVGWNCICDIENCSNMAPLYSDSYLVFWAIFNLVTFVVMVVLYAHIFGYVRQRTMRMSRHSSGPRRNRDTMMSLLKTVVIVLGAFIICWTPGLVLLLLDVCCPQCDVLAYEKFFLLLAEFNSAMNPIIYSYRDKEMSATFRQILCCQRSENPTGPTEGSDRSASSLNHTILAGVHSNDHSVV

Structure (SMILES)	EC50
C[C@@H](OC(=O)Nc1c(-c2ccc(C(=O)Nc3ccncc3)cn2)nnn1C)c1cccnc1Cl [Compound 1, (R)-1-(2-chloropyridin-3-yl)ethyl (1-methyl-4-(5-(pyridin-4-ylcarbamoyl)pyridin-2-yl)-1H-1,2,3-triazol-5-yl)carbamate]	75.8 nM
C[C@@H](OC(=O)Nc1c(-c2ccc(C(=O)NC34CC(Cl)(C3)C4)cn2)nnn1C)c1cccnc1Cl [Compound 2, (R)-1-(2-chloropyridin-3-yl)ethyl (4-(5-((3-chlorobicyclo[1.1.1]pentan-1-yl)carbamoyl)pyridin-2-yl)-1-methyl-1H-1,2,3-triazol-5-yl)carbamate]	8.1 nM
C[C@@H](OC(=O)Nc1c(-c2ccc(C(=O)NC3CC(F)(F)C3)cn2)nnn1C)c1cccnc1Cl [Compound 3, (R)-1-(2-chloro-pyridin-3-yl)-ethyl (4-(5-((3,3-difluoro-cyclobutyl)-carbamoyl)-pyridin-2-yl)-1-methyl-1H-1,2,3-triazol-5-yl)carbamate]	1420 nM
C[C@@H](OC(=O)Nc1c(-c2ccc(C(=O)NC34CC(F)(C3)C4)cn2)nnn1C)c1cccnc1Cl [Compound 4, (R)-1-(2-chloro-pyridin-3-yl)-ethyl (4-(5-((3-fluorobicyclo-[1.1.1]pentan-1-yl)carbamoyl)-pyridin-2-yl)-1-methyl-1H-1,2,3-triazol-5-yl)carbamate]	142 nM
C[C@@H](OC(=O)Nc1c(-c2ccc(C(=O)NC34CC(C#N)(C3)C4)cn2)nnn1C)c1cccnc1Cl [Compound 5, (R)-1-(2-chloro-pyridin-3-yl)-ethyl (4-(5-((3-cyanobicyclo [1.1.1]pentan-1-yl)carbamoyl)-pyridin-2-yl)-1-methyl-1H-1,2,3-triazol-5-yl)carbamate]	42.9 nM
C[C@@H](OC(=O)Nc1c(-c2ccc(C(=O)NC34CC(C(F)F)(C3)C4)cn2)nnn1C)c1cccnc1Cl [Compound 6]	56.1 nM
C[C@@H](OC(=O)Nc1c(-c2ccc(C(=O)Nc3cccnc3)cn2)nnn1C)c1cccnc1Cl [Compound 7, (R)-1-(2-chloro-pyridin-3-yl)-ethyl (1-methyl-4-(5-(pyridin-3-ylcarbamoyl)-pyridin-2-yl)-1H-1,2,3-triazol-5-yl)carbamate]	334 nM
C[C@@H](OC(=O)Nc1c(-c2ccc(C(=O)NC34CC(C)(C3)C4)cn2)nnn1C)c1cccnc1Cl [Compound 8, (R)-1-(2-chloro-pyridin-3-yl)-ethyl (1-methyl-4-(5-((3-methyl-bicyclo[1.1.1]-pentan-1-yl)-carbamoyl)-pyridin-2-yl)-1H-1,2,3-triazol-5-yl)carbamate]	30.4 nM
C[C@@H](OC(=O)Nc1c(-c2ccc(C(=O)Nc3ccc(F)nc3)cn2)nnn1C)c1cccnc1Cl [Compound 9, (R)-1-(2-chloro-pyridin-3-yl)-ethyl (4-(5-((6-fluoropyridin-3-yl)carbam-oyl)pyridin-2-yl)-1-methyl-1H-1,2,3-triazol-5-yl)carbamate]	325 nM
C[C@@H](OC(=O)Nc1c(-c2ccc(C(=O)NC34CC(C3)C4)cn2)nnn1C)c1cccnc1Cl [Compound 10, (R)-1-(2-chloro-pyridin-3-yl)-ethyl (4-(5-(bicyclo[1.1.1]-pentan-1-yl-carbamoyl)-pyridin-2-yl)-1-methyl-1H-1,2,3-triazol-5-yl)carbamate]	439 nM
COC12CC(NC(=O)c3ccc(-c4nnn(C)c4NC(=O)O[C@H](C)c4cccnc4Cl)nc3)(C1)C2 [Compound 11, (R)-1-(2-chloro-pyridin-3-yl)-ethyl (4-(5-((3-methoxybicyclo-[1.1.1]pentan-1-yl)carbamoyl)-pyridin-2-yl)-1-methyl-1H-1,2,3-triazol-5-yl)carbamate]	62.7 nM
COC(=O)C12CC(NC(=O)c3ccc(-c4nnn(C)c4NC(=O)O[C@H](C)c4cccnc4Cl)nc3)(C1)C2 [Compound 12, (R)-methyl 3-(6-(5-(((1-(2-chloro-pyridin-3-yl)-ethoxy)carbon-yl)amino)-1-methyl-1H-1,2,3-triazol-4-yl)nicotinamido)-bicyclo[1.1.1]-pentane-1-carbox-ylate]	26.5 nM
